# Source: ChEMBL document CHEMBL5308541, “MAIP: An Open-Source Tool to Enrich High-Throughput Screening Output and Identify Novel, Druglike Molecules with Antimalarial Activity” (ACS Med Chem Lett, 2023)
# pIC50: −log10 of the molar value.
# Experiments:
# [1] = Hit confirmation in dose-response curve in HepG2 cytotoxicity assay, at 72h; type: toxicity, cell-based, Homo sapiens; set-up: timepoint 72 hour; conditions: human, HepG2 cells
# Plasmodium falciparum [2] = assay: Hit confirmation in dose-response curve in NF54 nanoGlo assay, at 72h; type: functional, organism-based, Erythrocyte; set-up: timepoint 72 hour; conditions: Plasmodium falciparum, NF54, Erythrocyte, 72 h
# Plasmodium falciparum [3] = assay: Hit confirmation in dose-response curve in NF54 nanoGlo assay, at 12h; type: functional, organism-based, Erythrocyte; set-up: timepoint 12 hour; conditions: Plasmodium falciparum, NF54, Erythrocyte, 12 h
# Plasmodium falciparum [4] = assay: Hit confirmation in dose-response curve in Dd2 pLDH assay, at 72h; type: functional, organism-based, Erythrocyte; set-up: timepoint 72 hour; conditions: Plasmodium falciparum, Dd2, Erythrocyte, 72 h
# Plasmodium falciparum [5] = assay: Hit confirmation in dose-response curve in NF54 pLDH assay, at 72h; type: functional, organism-based, Erythrocyte; set-up: timepoint 72 hour; conditions: Plasmodium falciparum, NF54, Erythrocyte, 72 h
smiles,measurement,setting,value
Cc1ccc2[nH]cc(-c3cc(N4CCOCC4)nc(N)n3)c2c1,IC50 at 72 h,[1],> 10 µM
same,pIC50,Plasmodium falciparum [2],5.25
same,pIC50,Plasmodium falciparum [3],5.01
same,pIC50,Plasmodium falciparum [4],5.15
same,pIC50,Plasmodium falciparum [5],5.12
N[C@H]1CC[C@@H](NC2CCN(c3ccc(F)c(F)c3)CC2)CC1,IC50 at 72 h,[1],7.76 µM
same,pIC50,Plasmodium falciparum [2],5.55
same,pIC50,Plasmodium falciparum [3],5.02
same,pIC50,Plasmodium falciparum [4],5.48
same,pIC50,Plasmodium falciparum [5],5.45
Cc1cc(N2CCC(NCCCN3CCCc4ccccc43)CC2)nc(N)n1,IC50 at 72 h,[1],> 10 µM
same,pIC50,Plasmodium falciparum [2],5.51
same,pIC50,Plasmodium falciparum [3],< 5.00
same,pIC50,Plasmodium falciparum [4],5.43
same,pIC50,Plasmodium falciparum [5],5.44
CCOc1cc2nccc(N3C[C@H]4CN(C)C[C@H]4C3)c2cc1OCC,IC50 at 72 h,[1],> 10 µM
same,pIC50,Plasmodium falciparum [2],6.24
same,pIC50,Plasmodium falciparum [3],6.03
same,pIC50,Plasmodium falciparum [4],6.28
same,pIC50,Plasmodium falciparum [5],6.25
COCCCN1CCC(Nc2ncnc3cc(C)c(C)cc23)CC1,IC50 at 72 h,[1],> 10 µM
same,pIC50,Plasmodium falciparum [2],5.93
same,pIC50,Plasmodium falciparum [3],5.69
same,pIC50,Plasmodium falciparum [4],5.93
same,pIC50,Plasmodium falciparum [5],5.77
O=C(NCc1ccc(N2CCNCC2)c(F)c1)c1ccc(-c2noc(C(F)(F)F)n2)cc1,IC50 at 72 h,[1],> 10 µM
same,pIC50,Plasmodium falciparum [2],5.58
same,pIC50,Plasmodium falciparum [3],5.18
same,pIC50,Plasmodium falciparum [4],5.58
same,pIC50,Plasmodium falciparum [5],5.59
CN1CCC(N(C)C[C@H](Nc2ncnc3ccccc23)c2ccccc2)CC1,IC50 at 72 h,[1],> 10 µM
same,pIC50,Plasmodium falciparum [2],6.01
same,pIC50,Plasmodium falciparum [3],5.79
same,pIC50,Plasmodium falciparum [4],5.91
same,pIC50,Plasmodium falciparum [5],5.77
Cc1ccccc1-c1cccc(N2CCC(NCC3CCNCC3)CC2)c1,IC50 at 72 h,[1],5.5 µM
same,pIC50,Plasmodium falciparum [2],5.94
same,pIC50,Plasmodium falciparum [3],5.54
same,pIC50,Plasmodium falciparum [4],5.89
same,pIC50,Plasmodium falciparum [5],5.85
CCN1CCN(c2ccc(CNCc3cccc(O)c3)cc2F)CC1,IC50 at 72 h,[1],> 10 µM
same,pIC50,Plasmodium falciparum [2],5.71
same,pIC50,Plasmodium falciparum [3],5.05
same,pIC50,Plasmodium falciparum [4],5.41
same,pIC50,Plasmodium falciparum [5],5.47
CN1C2CCC1CC(OC(=O)C1CCC(C(=O)OC3CC4CCC(C3)N4C)(c3ccccc3)c3ccccc31)C2 (stereo not given),IC50 at 72 h,[1],> 10 µM
same,pIC50,Plasmodium falciparum [2],5.54
same,pIC50,Plasmodium falciparum [3],5.41
same,pIC50,Plasmodium falciparum [4],5.48
same,pIC50,Plasmodium falciparum [5],5.42
CN1CCC(N(Cc2ccccc2)C(=O)c2cc3cnccc3[nH]2)CC1,IC50 at 72 h,[1],> 10 µM
same,pIC50,Plasmodium falciparum [2],5.60
same,pIC50,Plasmodium falciparum [3],5.27
same,pIC50,Plasmodium falciparum [4],5.55
same,pIC50,Plasmodium falciparum [5],5.53
COCCN1CC[C@H](CNC2CCN(c3ncc4ccc(F)cc4n3)CC2)C1,IC50 at 72 h,[1],> 10 µM
same,pIC50,Plasmodium falciparum [2],5.51
same,pIC50,Plasmodium falciparum [3],5.25
same,pIC50,Plasmodium falciparum [4],5.39
same,pIC50,Plasmodium falciparum [5],5.34
Cc1noc(-c2ccnc(NC[C@@H](c3ccccn3)N3CCOCC3)c2)n1,IC50 at 72 h,[1],> 10 µM
same,pIC50,Plasmodium falciparum [2],5.80
same,pIC50,Plasmodium falciparum [3],< 5.00
same,pIC50,Plasmodium falciparum [4],5.52
same,pIC50,Plasmodium falciparum [5],5.40
Cc1ccn2cc(-c3ccc(N4CCC(NCc5cccnc5)CC4)cc3)nc2c1,IC50 at 72 h,[1],> 10 µM
same,pIC50,Plasmodium falciparum [2],5.43
same,pIC50,Plasmodium falciparum [3],< 5.00
same,pIC50,Plasmodium falciparum [4],5.27
same,pIC50,Plasmodium falciparum [5],5.28
COc1cc2nc(NCC3(N4CCN(C)CC4)CCCC3)cc(C)c2cc1OC,IC50 at 72 h,[1],> 10 µM
same,pIC50,Plasmodium falciparum [2],5.67
same,pIC50,Plasmodium falciparum [3],5.07
same,pIC50,Plasmodium falciparum [4],5.65
same,pIC50,Plasmodium falciparum [5],5.46
N#Cc1ccc(N2C[C@H](COCC3CC3)C3(CCN(Cc4cccc(O)c4)CC3)C2)cc1C(F)(F)F,IC50 at 72 h,[1],> 10 µM
same,pIC50,Plasmodium falciparum [2],5.75
same,pIC50,Plasmodium falciparum [3],5.33
same,pIC50,Plasmodium falciparum [4],5.57
same,pIC50,Plasmodium falciparum [5],5.57
Cn1cc(-c2cncc(C(=O)NC3CCN(c4cccc(F)c4)CC3)c2)cn1,IC50 at 72 h,[1],> 10 µM
same,pIC50,Plasmodium falciparum [2],5.49
same,pIC50,Plasmodium falciparum [3],5.85
same,pIC50,Plasmodium falciparum [4],< 5.00
same,pIC50,Plasmodium falciparum [5],< 5.00
COc1ccnc(NCCCc2nc(-c3ccncc3)cs2)n1,IC50 at 72 h,[1],> 10 µM
same,pIC50,Plasmodium falciparum [2],5.32
same,pIC50,Plasmodium falciparum [3],< 5.00
same,pIC50,Plasmodium falciparum [4],5.33
same,pIC50,Plasmodium falciparum [5],5.23
Oc1ccc(OC(F)(F)F)cc1-c1ccc2nccn2n1,IC50 at 72 h,[1],> 10 µM
same,pIC50,Plasmodium falciparum [2],5.50
same,pIC50,Plasmodium falciparum [3],5.17
same,pIC50,Plasmodium falciparum [4],5.20
same,pIC50,Plasmodium falciparum [5],5.11
c1ccc2c(Nc3ccc4[nH]cnc4c3)c3ccccc3nc2c1,IC50 at 72 h,[1],> 10 µM
same,pIC50,Plasmodium falciparum [2],6.08
same,pIC50,Plasmodium falciparum [3],5.74
same,pIC50,Plasmodium falciparum [4],5.85
same,pIC50,Plasmodium falciparum [5],5.77
Cc1ccc(-c2nnc(Nc3ccccc3)c3ccccc23)cc1CN1C(=O)c2ccccc2C1=O,IC50 at 72 h,[1],> 10 µM
same,pIC50,Plasmodium falciparum [2],5.42
same,pIC50,Plasmodium falciparum [3],< 5.00
same,pIC50,Plasmodium falciparum [4],5.03
same,pIC50,Plasmodium falciparum [5],< 5.00
COc1ccc2nc(C)cc(NCc3cccc(NC(=O)c4ccco4)c3)c2c1,IC50 at 72 h,[1],> 10 µM
same,pIC50,Plasmodium falciparum [2],5.93
same,pIC50,Plasmodium falciparum [3],5.48
same,pIC50,Plasmodium falciparum [4],5.62
same,pIC50,Plasmodium falciparum [5],5.61
CN(C)C1(CNc2nc(C(F)(F)F)nc3cc4c(cc23)OCO4)CCCCCC1,IC50 at 72 h,[1],> 10 µM
same,pIC50,Plasmodium falciparum [2],5.53
same,pIC50,Plasmodium falciparum [3],< 5.00
same,pIC50,Plasmodium falciparum [4],5.46
same,pIC50,Plasmodium falciparum [5],5.90
CN1C(C)(C)CC(NC(=O)c2ccc(-c3cc(-c4cccc(C(F)(F)F)c4)n[nH]3)cc2)CC1(C)C,IC50 at 72 h,[1],> 10 µM
same,pIC50,Plasmodium falciparum [2],5.44
same,pIC50,Plasmodium falciparum [3],5.07
same,pIC50,Plasmodium falciparum [4],5.10
same,pIC50,Plasmodium falciparum [5],5.03
Cc1ccc2c(-c3ccccc3CN3CCNCC3)cccc2n1,IC50 at 72 h,[1],> 10 µM
same,pIC50,Plasmodium falciparum [2],5.14
same,pIC50,Plasmodium falciparum [3],< 5.00
same,pIC50,Plasmodium falciparum [4],< 5.00
same,pIC50,Plasmodium falciparum [5],< 5.00
Cc1cc(N2CCC(NC3CCNC(c4ccccc4)C3)CC2)nc(C)n1 (stereo not given),IC50 at 72 h,[1],> 10 µM
same,pIC50,Plasmodium falciparum [2],5.36
same,pIC50,Plasmodium falciparum [3],4.99
same,pIC50,Plasmodium falciparum [4],5.21
same,pIC50,Plasmodium falciparum [5],5.04
CN(C[C@H](O)COc1ccccc1CN1CCC(c2ccncc2)CC1)C1CCCCC1,IC50 at 72 h,[1],> 10 µM
same,pIC50,Plasmodium falciparum [2],5.23
same,pIC50,Plasmodium falciparum [3],< 5.00
same,pIC50,Plasmodium falciparum [4],5.26
same,pIC50,Plasmodium falciparum [5],5.27
Clc1cccc(N2CC[C@H](CNC3CCN(Cc4ccco4)CC3)C2)c1,IC50 at 72 h,[1],> 10 µM
same,pIC50,Plasmodium falciparum [2],5.46
same,pIC50,Plasmodium falciparum [3],5.28
same,pIC50,Plasmodium falciparum [4],5.50
same,pIC50,Plasmodium falciparum [5],5.43
Cc1cnccc1NCCNCc1cccc(OCCCCN2CCOCC2)c1,IC50 at 72 h,[1],> 10 µM
same,pIC50,Plasmodium falciparum [2],5.84
same,pIC50,Plasmodium falciparum [3],5.56
same,pIC50,Plasmodium falciparum [4],5.92
same,pIC50,Plasmodium falciparum [5],5.86
NCC1(O)CCN(c2ccnc3cc(F)c(Cl)cc23)CC1,IC50 at 72 h,[1],> 10 µM
same,pIC50,Plasmodium falciparum [2],5.74
same,pIC50,Plasmodium falciparum [3],5.51
same,pIC50,Plasmodium falciparum [4],5.49
same,pIC50,Plasmodium falciparum [5],5.66
Cc1sc2nc(-c3ccccn3)nc(NCCc3nccn3C)c2c1-c1ccccc1,IC50 at 72 h,[1],8.32 µM
same,pIC50,Plasmodium falciparum [2],5.49
same,pIC50,Plasmodium falciparum [3],5.05
same,pIC50,Plasmodium falciparum [4],5.45
same,pIC50,Plasmodium falciparum [5],5.06
CC(C)(C)n1ncc2c(NCc3ccc4cccnc4c3O)ncnc21,IC50 at 72 h,[1],6.31 µM
same,pIC50,Plasmodium falciparum [2],5.41
same,pIC50,Plasmodium falciparum [3],5.00
same,pIC50,Plasmodium falciparum [4],5.26
same,pIC50,Plasmodium falciparum [5],5.19
OCCN1CCC(NCCc2cc(Cl)cc(Cl)c2)CC1,IC50 at 72 h,[1],> 10 µM
same,pIC50,Plasmodium falciparum [2],5.39
same,pIC50,Plasmodium falciparum [3],5.18
same,pIC50,Plasmodium falciparum [4],5.48
same,pIC50,Plasmodium falciparum [5],5.44
OC[C@H](CNCc1cc2ccc(F)cc2[nH]1)c1ccccc1Cl,IC50 at 72 h,[1],> 10 µM
same,pIC50,Plasmodium falciparum [2],5.63
same,pIC50,Plasmodium falciparum [3],5.40
same,pIC50,Plasmodium falciparum [4],5.48
same,pIC50,Plasmodium falciparum [5],5.43
CN(C)CCN1CCC(NC2CCC(O)(c3cccc(Cl)c3)CC2)CC1 (stereo not given),IC50 at 72 h,[1],> 10 µM
same,pIC50,Plasmodium falciparum [2],5.30
same,pIC50,Plasmodium falciparum [3],< 5.00
same,pIC50,Plasmodium falciparum [4],5.43
same,pIC50,Plasmodium falciparum [5],5.35
O[C@H]1CCN(Cc2cccc(NCc3cn4ccnc4s3)c2)C1,IC50 at 72 h,[1],> 10 µM
same,pIC50,Plasmodium falciparum [2],5.41
same,pIC50,Plasmodium falciparum [3],5.00
same,pIC50,Plasmodium falciparum [4],5.42
same,pIC50,Plasmodium falciparum [5],5.38
Cc1cc(N2CCC(N(C)Cc3cc(-c4ccccc4)n[nH]3)CC2)nc(N)n1,IC50 at 72 h,[1],> 10 µM
same,pIC50,Plasmodium falciparum [2],5.49
same,pIC50,Plasmodium falciparum [3],< 5.00
same,pIC50,Plasmodium falciparum [4],5.43
same,pIC50,Plasmodium falciparum [5],5.35
COc1ccc(OC2CCN(C3CCCC3)CC2)c(C(=O)NCc2cccc3[nH]ccc23)c1,IC50 at 72 h,[1],> 10 µM
same,pIC50,Plasmodium falciparum [2],5.35
same,pIC50,Plasmodium falciparum [3],< 5.00
same,pIC50,Plasmodium falciparum [4],5.21
same,pIC50,Plasmodium falciparum [5],5.27
